Assays:
COVID-19 = settings: cited from earlier work
SARS-CoV-2 M^pro = SARS-CoV-2 M^pro (Severe acute respiratory syndrome coronavirus 2, UniProt P0DTD1); assay: FRET-based kinetic assay of M^pro inhibition; format: biochemical

Cc1cccc(C)c1OCC(=O)N[C@@H](Cc1ccccc1)[C@@H](O)C[C@H](Cc1ccccc1)NC(=O)[C@H](C(C)C)N1CCCNC1=O [lopinavir]
benefits against COVID-19 in clinical trials (COVID-19; clinical trials, no reference given): neither lopinavir nor the lopinavir/ritonavir combination has thus far shown any significant benefits

Cc1c(O)cccc1C(=O)N[C@@H](CSc1ccccc1)[C@H](O)CN1C[C@H]2CCCC[C@H]2C[C@H]1C(=O)NC(C)(C)C [nelfinavir]
IC50 (SARS-CoV-2 M^pro): 250 to 600 µM

CCC(CC)COC(=O)[C@H](C)N[P@](=O)(OC[C@H]1O[C@@](C#N)(c2ccc3c(N)ncnn23)[C@H](O)[C@@H]1O)Oc1ccccc1 [remdesivir]
clinical benefit (COVID-19; adult patients hospitalized for severe COVID-19): no statistically significant clinical benefits | time to clinical improvement (COVID-19; in comparison to the placebo-control group): faster time to clinical improvement

From PMC7605328 (ACS Medicinal Chemistry Letters, 2020)
